Legend:
[1] = molecular target: Serine/threonine-protein kinase PLK3 (Homo sapiens, UniProt Q9H4B4); assay: Selectivity interaction (KinomeScan (DiscoverX)) EUB0001049a PLK3; details: at 1 µM
[2] = molecular target: Dual specificity protein kinase CLK1 (Homo sapiens, UniProt P49759); assay: Selectivity interaction (Ambit KINOMEscan and KiNATiv profiling in Jurkat cells) EUB0000090b CLK1; type: cell-based; details: at 1 µM
[3] = molecular target: T1, Ephrin type-A receptor 8 (Homo sapiens) (UniProt P29322); assay: Selectivity interaction (KinomeScan (DiscoverX)) EUB0000618a EPHA8; details: at 10 µM
T1 sequence (whole entry): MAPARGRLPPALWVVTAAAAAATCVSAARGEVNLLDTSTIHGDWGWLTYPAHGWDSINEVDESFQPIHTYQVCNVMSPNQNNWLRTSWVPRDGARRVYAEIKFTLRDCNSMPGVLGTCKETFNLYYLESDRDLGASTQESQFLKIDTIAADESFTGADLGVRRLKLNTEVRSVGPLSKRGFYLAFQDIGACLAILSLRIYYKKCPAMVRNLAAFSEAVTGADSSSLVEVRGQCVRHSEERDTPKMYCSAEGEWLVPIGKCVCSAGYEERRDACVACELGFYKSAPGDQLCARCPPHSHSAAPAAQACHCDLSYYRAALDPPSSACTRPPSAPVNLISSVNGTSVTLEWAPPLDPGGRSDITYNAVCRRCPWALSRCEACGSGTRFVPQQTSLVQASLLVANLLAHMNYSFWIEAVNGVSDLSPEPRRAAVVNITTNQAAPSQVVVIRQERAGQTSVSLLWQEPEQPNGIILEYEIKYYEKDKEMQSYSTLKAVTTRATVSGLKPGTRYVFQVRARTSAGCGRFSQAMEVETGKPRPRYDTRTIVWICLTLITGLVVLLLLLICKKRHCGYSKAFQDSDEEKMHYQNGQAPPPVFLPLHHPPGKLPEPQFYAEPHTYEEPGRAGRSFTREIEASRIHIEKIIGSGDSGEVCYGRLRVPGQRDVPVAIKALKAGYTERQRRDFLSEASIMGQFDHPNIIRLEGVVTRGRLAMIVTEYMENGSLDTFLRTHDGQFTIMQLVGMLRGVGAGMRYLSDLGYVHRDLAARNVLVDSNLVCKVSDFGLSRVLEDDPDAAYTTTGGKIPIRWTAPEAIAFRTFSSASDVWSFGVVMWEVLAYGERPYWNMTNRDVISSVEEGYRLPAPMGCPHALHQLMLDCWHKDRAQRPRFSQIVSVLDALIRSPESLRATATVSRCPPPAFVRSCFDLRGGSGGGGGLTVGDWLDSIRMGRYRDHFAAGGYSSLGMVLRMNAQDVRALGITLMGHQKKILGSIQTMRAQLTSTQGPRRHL

[4] = molecular target: Serine/threonine-protein kinase 32B (Homo sapiens) (UniProt Q9NY57); assay: Selectivity interaction (KinomeScan (DiscoverX)) EUB0000695a STK32B; details: at 100 nM
[5] = molecular target: T2, Serine/threonine-protein kinase Nek9 (Homo sapiens) (UniProt Q8TD19); assay: Selectivity interaction (ProQinase) EUB0000171b NEK9
T2 sequence (whole entry): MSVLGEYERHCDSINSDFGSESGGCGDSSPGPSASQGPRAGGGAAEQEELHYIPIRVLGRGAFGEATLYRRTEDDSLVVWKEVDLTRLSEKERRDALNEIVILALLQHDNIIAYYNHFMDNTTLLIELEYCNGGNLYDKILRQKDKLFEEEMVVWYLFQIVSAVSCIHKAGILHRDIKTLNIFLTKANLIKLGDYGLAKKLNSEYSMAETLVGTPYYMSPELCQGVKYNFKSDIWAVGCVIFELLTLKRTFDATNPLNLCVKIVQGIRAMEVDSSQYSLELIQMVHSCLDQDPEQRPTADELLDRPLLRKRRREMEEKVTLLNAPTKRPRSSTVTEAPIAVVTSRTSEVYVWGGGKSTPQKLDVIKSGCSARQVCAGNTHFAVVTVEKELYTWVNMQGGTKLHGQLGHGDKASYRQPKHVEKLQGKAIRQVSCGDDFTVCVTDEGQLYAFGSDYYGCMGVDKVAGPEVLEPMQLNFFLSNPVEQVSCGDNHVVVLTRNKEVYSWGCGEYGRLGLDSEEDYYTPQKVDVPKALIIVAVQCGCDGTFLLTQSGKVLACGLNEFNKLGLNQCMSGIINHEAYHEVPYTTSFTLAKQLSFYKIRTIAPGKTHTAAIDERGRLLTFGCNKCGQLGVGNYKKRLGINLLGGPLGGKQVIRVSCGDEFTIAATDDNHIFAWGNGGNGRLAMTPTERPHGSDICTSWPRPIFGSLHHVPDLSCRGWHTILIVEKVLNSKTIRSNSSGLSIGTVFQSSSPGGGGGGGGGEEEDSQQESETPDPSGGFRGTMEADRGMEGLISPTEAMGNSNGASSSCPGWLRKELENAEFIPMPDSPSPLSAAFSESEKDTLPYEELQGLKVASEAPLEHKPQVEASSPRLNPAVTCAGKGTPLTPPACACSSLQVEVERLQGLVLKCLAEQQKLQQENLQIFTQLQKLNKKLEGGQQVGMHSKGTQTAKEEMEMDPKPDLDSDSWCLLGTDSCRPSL

Chain of Serine/threonine-protein kinase PLK3 (Q9H4B4 whole entry, looked up): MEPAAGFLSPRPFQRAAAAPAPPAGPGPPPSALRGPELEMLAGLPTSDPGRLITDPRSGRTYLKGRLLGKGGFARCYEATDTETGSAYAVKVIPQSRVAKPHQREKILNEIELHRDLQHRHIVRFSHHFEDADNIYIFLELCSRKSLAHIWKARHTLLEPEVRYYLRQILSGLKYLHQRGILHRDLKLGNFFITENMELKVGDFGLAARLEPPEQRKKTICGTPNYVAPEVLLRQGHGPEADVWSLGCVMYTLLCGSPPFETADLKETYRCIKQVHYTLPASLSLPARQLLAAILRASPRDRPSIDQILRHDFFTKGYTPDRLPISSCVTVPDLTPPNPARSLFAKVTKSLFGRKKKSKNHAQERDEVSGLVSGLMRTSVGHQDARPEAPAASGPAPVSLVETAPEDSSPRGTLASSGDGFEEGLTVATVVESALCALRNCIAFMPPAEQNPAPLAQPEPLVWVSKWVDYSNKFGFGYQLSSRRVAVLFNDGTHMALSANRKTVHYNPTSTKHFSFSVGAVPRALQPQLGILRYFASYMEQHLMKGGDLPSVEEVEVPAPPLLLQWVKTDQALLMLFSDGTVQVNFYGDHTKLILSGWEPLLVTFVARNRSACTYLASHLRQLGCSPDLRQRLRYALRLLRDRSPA
Chain of Dual specificity protein kinase CLK1 (P49759 whole entry, looked up): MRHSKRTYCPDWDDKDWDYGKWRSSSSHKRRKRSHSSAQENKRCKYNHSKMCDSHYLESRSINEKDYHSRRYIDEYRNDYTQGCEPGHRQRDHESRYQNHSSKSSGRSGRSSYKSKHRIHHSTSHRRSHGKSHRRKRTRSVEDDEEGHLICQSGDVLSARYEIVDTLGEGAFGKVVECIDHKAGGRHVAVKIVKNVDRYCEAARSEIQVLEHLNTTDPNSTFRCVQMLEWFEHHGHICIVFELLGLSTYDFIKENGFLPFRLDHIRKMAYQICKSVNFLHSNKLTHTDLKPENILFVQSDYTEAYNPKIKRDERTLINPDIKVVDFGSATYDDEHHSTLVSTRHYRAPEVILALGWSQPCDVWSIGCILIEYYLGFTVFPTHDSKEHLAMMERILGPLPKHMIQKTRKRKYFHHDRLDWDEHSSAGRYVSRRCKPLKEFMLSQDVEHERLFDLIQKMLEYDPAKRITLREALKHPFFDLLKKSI
Chain of Serine/threonine-protein kinase 32B (Homo sapiens) (Q9NY57 whole entry): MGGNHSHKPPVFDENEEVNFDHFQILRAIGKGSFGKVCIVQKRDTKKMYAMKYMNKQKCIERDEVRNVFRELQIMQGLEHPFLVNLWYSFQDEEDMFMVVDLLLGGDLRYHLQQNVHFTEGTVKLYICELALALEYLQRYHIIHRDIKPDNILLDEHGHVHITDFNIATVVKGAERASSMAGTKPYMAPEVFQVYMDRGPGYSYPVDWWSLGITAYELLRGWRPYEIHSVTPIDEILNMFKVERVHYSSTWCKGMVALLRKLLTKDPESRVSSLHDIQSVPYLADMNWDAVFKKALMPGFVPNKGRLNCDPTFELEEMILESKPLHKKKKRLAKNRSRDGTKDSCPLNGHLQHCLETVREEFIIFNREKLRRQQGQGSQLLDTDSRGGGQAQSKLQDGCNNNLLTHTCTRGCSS

## COc1cc(Nc2nc(C)cc(-c3cnn4nc(OC)ccc34)n2)cc(C(F)(F)F)c1
[1]
  % of control: 72%

## CN(C)C/C=C/C(=O)Nc1ccc(C(=O)N2CCCC(Nc3ncc(Cl)c(-c4c[nH]c5ccccc45)n3)C2)cc1 (stereo unspecified)
[2]
  % of control: 62%

## O[C@H]1CC[C@H](Nc2ncc3nc(Nc4c(F)cc(F)cc4F)n([C@H]4CCOC4)c3n2)CC1
[3]
  % of control: 72%

## Cc1cc(F)c(C(=O)Nc2cccc(-c3nncn3C(C)C)n2)cc1-n1cnc(C2CC2)c1
[4]
  % of control: 93%

## C=CC(=O)Nc1cccc(C(=O)Nc2ccc(Nc3cc(-c4[nH]c(SC)nc4C)ccn3)cc2)c1
[5]; at 1 µM
  % of control: 97%
[5]; at 5 µM
  % of control: 73%

— ChEMBL document CHEMBL5465560, “Selectivity Literature for EUbOPEN Chemogenomic Library” (2024)
